Measured values taken from patent publication US10179785B2, “Imidazotriazinone or imidazopyrazinone derivatives, and use thereof” (ST PHARM CO., LTD., priority 2014, dated 2019).
Where two headings read alike, the source gives them in different places.

Molecular target: T1, tankyrase 1 (Homo sapiens, UniProt O95271)
T1 construct: purchased Trevigen 4700-096-K
T1 sequence (O95271 1-1327): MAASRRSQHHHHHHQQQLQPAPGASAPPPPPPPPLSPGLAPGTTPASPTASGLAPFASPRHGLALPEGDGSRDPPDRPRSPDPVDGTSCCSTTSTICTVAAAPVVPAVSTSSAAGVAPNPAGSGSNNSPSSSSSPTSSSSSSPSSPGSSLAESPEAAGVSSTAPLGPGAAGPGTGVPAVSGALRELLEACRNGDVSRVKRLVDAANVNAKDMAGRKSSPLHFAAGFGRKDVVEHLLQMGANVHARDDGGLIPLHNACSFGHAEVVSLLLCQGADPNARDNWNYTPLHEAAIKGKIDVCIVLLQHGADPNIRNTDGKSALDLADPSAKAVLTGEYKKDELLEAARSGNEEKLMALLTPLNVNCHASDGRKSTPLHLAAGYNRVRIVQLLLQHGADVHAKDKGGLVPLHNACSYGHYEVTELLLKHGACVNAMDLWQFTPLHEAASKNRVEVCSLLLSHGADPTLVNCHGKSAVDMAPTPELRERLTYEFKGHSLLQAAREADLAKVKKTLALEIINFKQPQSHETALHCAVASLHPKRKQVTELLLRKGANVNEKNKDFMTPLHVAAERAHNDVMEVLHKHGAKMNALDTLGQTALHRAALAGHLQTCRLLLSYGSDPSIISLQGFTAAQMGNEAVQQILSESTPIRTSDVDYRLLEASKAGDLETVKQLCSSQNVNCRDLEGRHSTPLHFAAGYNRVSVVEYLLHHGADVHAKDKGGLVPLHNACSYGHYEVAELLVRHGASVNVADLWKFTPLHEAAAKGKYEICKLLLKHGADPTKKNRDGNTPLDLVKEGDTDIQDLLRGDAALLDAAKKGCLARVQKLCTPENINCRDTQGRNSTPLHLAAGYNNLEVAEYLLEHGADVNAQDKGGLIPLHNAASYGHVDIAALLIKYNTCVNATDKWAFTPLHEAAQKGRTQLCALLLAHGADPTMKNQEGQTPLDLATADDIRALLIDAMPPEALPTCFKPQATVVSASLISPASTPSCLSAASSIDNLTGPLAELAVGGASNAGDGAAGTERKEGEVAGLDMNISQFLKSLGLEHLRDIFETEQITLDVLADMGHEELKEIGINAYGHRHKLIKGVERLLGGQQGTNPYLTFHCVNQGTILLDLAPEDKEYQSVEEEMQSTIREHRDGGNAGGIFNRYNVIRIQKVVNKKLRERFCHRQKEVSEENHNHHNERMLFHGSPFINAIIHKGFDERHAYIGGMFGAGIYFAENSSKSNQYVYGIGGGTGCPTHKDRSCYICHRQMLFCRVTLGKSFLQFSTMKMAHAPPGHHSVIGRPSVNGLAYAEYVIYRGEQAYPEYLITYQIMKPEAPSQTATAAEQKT
Assay: Analysis of activity of tankyrase 1 (Trevigen kit, ELISA absorbance at 450 nm)
Type: biochemical
Procedure: Activities of novel compounds synthesized according to Examples 1 to 48 against tankyrase 1 were analyzed using a Trevigen kit (Cat. No. 4700-096-K). Poly PAR histone protein-coated 96-well plate, anti-PAR monoclonal antibody and goat anti-mouse IgG-HRP were used for measurement of absorbance by ELISA method. Specifically, 20× I-PAR assay buffer was diluted to 1× by adding water, and 50 μL of the diluted buffer was added to each well of the 96-well plate followed by reacting at rt for 30 min. Then, the supernatant was completely removed from each well and 10 μL of 1× I-PAR assay buffer and 15 μL of assay substrate were added to each well along with 1 μL of a 50× solution of inhibitors to be tested, which were the compounds obtained in the Examples 1 to 48. 10 m Units/μL of tankyrase 1 enzyme was diluted 50-fold with 1× I-PAR assay buffer and 25 μL of the diluted enzyme was added to each well and reacted while stirring at rt for 30 min. One without any compound of the present invention was used as a positive control and another containing 1× I-PAR assay buffer with the same volume instead of tankyrase 1 enzyme was used as a negative control. Upon completion of the reaction, 200 μL of PBSX, which was prepared by adding 0.1% triton X-100 to PBS, was added and removed and this washing process was repeated twice. Washing was repeated twice more using PBS in the same manner. 5× antibody diluent was diluted with distilled water to 1× concentration, 50 μL of the diluted goat anti-mouse IgG-HRP to 1/2000 was added to each well and reacted while stirring at rt for 30 min. Washes were carried out twice using PBSX and PBS, respectively. After addition of 50 μL of TACS-sapphire to each well of the plate, the plate was blocked from light to react for 10 min to 15 min and the color of the reaction solution turned blue. To stop the reaction, 50 μL of 0.2N HCl was added to turn the solution yellow. Finally, the absorbance of the resulting solution was measured at 450 nm.

[1] = Trevigen kit Cat. No. 4700-096-K, reaction at rt for 30 min, read-out: TNKS1 (IC50)

| Compound | IC50 [1] [nM] | IC50 [nM] |
| --- | --- | --- |
| Cc1ncc2c(=O)[nH]c(N3CCN(c4c(F)cc(OCCN5CCN(C)CC5)cc4F)CC3)nn12 [compound 25, 2-(4-(2,6-Difluoro-4-(2-(4-methylpiperazin-1-yl)ethoxy)phenyl)piperazin-1-yl)-7-methylimidazo[1,5-f][1,2,4]triazin-4(3H)-one] | 69.9 |  |
| Cc1ncc2c(=O)[nH]c(N3CCN(c4c(F)cc(OCC(=O)N5CCCC5)cc4F)CC3)nn12 [compound 29, 2-(4-(2,6-Difluoro-4-(2-oxo-2-(pyrrolidin-1-yl)ethoxy)phenyl)piperazin-1-yl)-7-methylimidazo[1,5-f][1,2,4]triazin-4(3H)-one] | 84.8 |  |
| Cc1ncc2c(=O)[nH]c(N3CCN(c4c(F)cc(OCCN(C)C)cc4F)CC3)nn12 [compound 6, 2-(4-(4-(2-(Dimethylamino)ethoxy)-2,6-difluorophenyl)piperazin-1-yl)-7-methylimidazo[1,5-f][1,2,4]triazin-4(3H)-one] | 19.6 |  |
| COCCOc1cc(F)c(N2CCN(c3nn4c(C)ncc4c(=O)[nH]3)CC2)c(F)c1 [compound 2, 2-(4-(2,6-Difluoro-4-(2-methoxyethoxy)phenyl)piperazin-1-yl)-7-methylimidazo[1,5-f][1,2,4]triazin-4(3H)-one] |  | 31.8 |
